Experimental data: patent publication US8252832B2, “Kinesin inhibitors as cancer therapeutics” (Novartis AG, priority 2007, dated 2012)
Where two headings read alike, the source gives them in different places.

Tested on: panel of cell lines derived from hematological malignancies
Experiment: Cell survival assay, CellTiter-Glo readout after 48 hours, hematological panel
Format: cell-based
Design: key to Differential: panel average log(GI50) minus cell line log(GI50); positive = more sensitive
Description: Compound IIa was tested against a panel of cell lines derived from hematological malignancies in a cell survival assay using CellTiter-Glo® as a readout after 48 hours in the presence of compound. Table 18 lists the type of hematological malignancy, the name of the sample, its GI50 (concentration needed to achieve 50% growth inhibition) value in the assay, the logarithm of the GI50 (log(GI50), and the relative sensitivity of each sample (Differential). The differential is calculated by subtracting the log(GI50) for each cell line from the average log(GI50) across the entire panel (0.236 in this case); a positive value indicates a sample that is more sensitive than average, whereas a negative value indicates a sample that is less sensitive than average.

**Q.** What does the source list for `CC(C)(C)[C@H](c1nc(-c2cc(F)ccc2F)cn1Cc1ccccc1)N(CC[C@H](N)CF)C(=O)CO` [Compound IIa]?
**A.** GI50 (Homo sapiens, MM1.S, 48 h, MM1-S (MM), read-out: GI50): 0.24 nM; GI50 (Homo sapiens, MM1.S, 48 h, MM1-S (MM), read-out: Log(GI50) (converted)): 0.24 nM; GI50 (Homo sapiens, MOLT-3, 48 h, MOLT-3 (ALL), read-out: GI50): 0.34 nM; GI50 (Homo sapiens, MOLT-3, 48 h, MOLT-3 (ALL), read-out: Log(GI50) (converted)): 0.335 nM; GI50 (Homo sapiens, MOLT-4, 48 h, MOLT-4 (ALL), read-out: GI50): 0.33 nM; GI50 (Homo sapiens, MOLT-4, 48 h, MOLT-4 (ALL), read-out: Log(GI50) (converted)): 0.331 nM; GI50 (Homo sapiens, MV4-11, 48 h, MV4, 11 (AML), read-out: GI50): 0.08 nM; GI50 (Homo sapiens, MV4-11, 48 h, MV4, 11 (AML), read-out: Log(GI50) (converted)): 0.0769 nM; GI50 (Homo sapiens, NALM-6, 48 h, NALM-6 (ALL), read-out: GI50): 0.14 nM; GI50 (Homo sapiens, NALM-6, 48 h, NALM-6 (ALL), read-out: Log(GI50) (converted)): 0.135 nM; GI50 (Homo sapiens, NCI-H929, 48 h, H929 (MM), read-out: GI50): 0.34 nM; GI50 (Homo sapiens, NCI-H929, 48 h, H929 (MM), read-out: Log(GI50) (converted)): 0.335 nM; GI50 (Homo sapiens, OPM-2, 48 h, OPM2 (MM), read-out: GI50): 0.14 nM; GI50 (Homo sapiens, OPM-2, 48 h, OPM2 (MM), read-out: Log(GI50) (converted)): 0.135 nM; GI50 (Homo sapiens, RPMI-8226, 48 h, RPMI8226 (MM), read-out: GI50): 0.26 nM; GI50 (Homo sapiens, RPMI-8226, 48 h, RPMI8226 (MM), read-out: Log(GI50) (converted)): 0.262 nM; GI50 (Homo sapiens, RS4-11, 48 h, RS4, 11 (ALL), read-out: GI50): 0.1 nM; GI50 (Homo sapiens, RS4-11, 48 h, RS4, 11 (ALL), read-out: Log(GI50) (converted)): 0.1 nM; GI50 (Homo sapiens, Ramos, 48 h, Ramos (NHL), read-out: GI50): 0.16 nM; GI50 (Homo sapiens, Ramos, 48 h, Ramos (NHL), read-out: Log(GI50) (converted)): 0.16 nM; GI50 (Homo sapiens, SET-2, 48 h, SET-2 (AML), read-out: GI50): 0.34 nM; GI50 (Homo sapiens, SET-2, 48 h, SET-2 (AML), read-out: Log(GI50) (converted)): 0.34 nM; GI50 (Homo sapiens, SU-DHL-1, 48 h, SuDHL-1 (NHL), read-out: GI50): 10 nM; GI50 (Homo sapiens, SU-DHL-1, 48 h, SuDHL-1 (NHL), read-out: Log(GI50) (converted)): 10 nM; GI50 (Homo sapiens, SU-DHL-4, 48 h, SuDHL-4 (NHL), read-out: GI50): 0.45 nM; GI50 (Homo sapiens, SU-DHL-4, 48 h, SuDHL-4 (NHL), read-out: Log(GI50) (converted)): 0.447 nM; GI50 (Homo sapiens, SU-DHL-6, 48 h, SuDHL-6 (NHL), read-out: GI50): 0.16 nM; GI50 (Homo sapiens, SU-DHL-6, 48 h, SuDHL-6 (NHL), read-out: Log(GI50) (converted)): 0.16 nM; GI50 (Homo sapiens, SUP-B15, 48 h, SUP-B15 (ALL), read-out: GI50): 0.19 nM; GI50 (Homo sapiens, SUP-B15, 48 h, SUP-B15 (ALL), read-out: Log(GI50) (converted)): 0.19 nM; GI50 (Homo sapiens, SUP-T1, 48 h, SUP-T1 (NHL), read-out: GI50): 5.57 nM; GI50 (Homo sapiens, SUP-T1, 48 h, SUP-T1 (NHL), read-out: Log(GI50) (converted)): 5.57 nM; GI50 (Homo sapiens, U-937, 48 h, U937 (NHL), read-out: GI50): 0.2 nM; GI50 (Homo sapiens, U-937, 48 h, U937 (NHL), read-out: Log(GI50) (converted)): 0.2 nM; Differential (HuT78 (NHL)): 0.195; Differential (INA-6 (MM)): 0.555; GI50 (INA-6, 48 h, INA-6 (MM), read-out: GI50): 0.12 nM; GI50 (INA-6, 48 h, INA-6 (MM), read-out: Log(GI50) (converted)): 0.12 nM; Differential (K562 (CML)): 0.314; Differential (KM-H2 (HL)): 0.266; Differential (KMS11 (MM)): −0.050; Differential (KMS11-Luc (MM)): 0.172; Differential (KMS12 (MM)): 0.172; Differential (KMS18-Luc (MM)): −0.080; Differential (KMS26 (MM)): 0.254; GI50 (KMS-26, 48 h, KMS26 (MM), read-out: GI50): 0.24 nM; GI50 (KMS-26, 48 h, KMS26 (MM), read-out: Log(GI50) (converted)): 0.24 nM; Differential (Karpas-299 (NHL)): 0.333; Differential (Karpas-299-Luc (NHL)): −1.671; Differential (Karpas-422 (NHL)): −1.077; Differential (Kasumi-1 (AML)): −0.010; Differential (L363 (MM)): 0.520; Differential (L428 (HL)): −1.667; Differential (L-1236 (HL)): −0.930; GI50 (L-1236, 48 h, L-1236 (HL), read-out: GI50): 3.67 nM; GI50 (L-1236, 48 h, L-1236 (HL), read-out: Log(GI50) (converted)): 3.66 nM; Differential (LP1 (MM)): 0.322; Differential (MHH-CALL-2 (ALL)): 0.136; Differential (MHH-CALL-3 (ALL)): 0.333; Differential (MHH-CALL-4 (ALL)): −1.366; GI50 (MHHCALL4, 48 h, MHH-CALL-4 (ALL), read-out: GI50): 10 nM; GI50 (MHHCALL4, 48 h, MHH-CALL-4 (ALL), read-out: Log(GI50) (converted)): 10 nM; Differential (MM1-S (MM)): 0.254; Differential (MM1-S-Luc (MM)): 0.272; Differential (MOLM13-Luc (AML)): 0.279; Differential (MOLT-3 (ALL)): 0.109; Differential (MOLT-4 (ALL)): 0.114; Differential (MUTZ-5 (ALL)): −1.366; Differential (MV4, 11 (AML)): 0.747; Differential (MV4, 11Luc (AML)): 0.613; Differential (NALM-6 (ALL)): 0.504; Differential (NALM-19 (ALL)): 0.355; Differential (OPM2 (MM)): 0.504; Differential (REH (ALL)): 0.379; Differential (RL (NHL)): −1.667; Differential (RPMI8226 (MM)): 0.216; Differential (RS4, 11 (ALL)): 0.634; Differential (Ramos (NHL)): 0.430; Differential (SEM-Luc (ALL)): 0.458; Differential (SET-2 (AML)): 0.102; Differential (SR (NHL)): 0.591; Differential (SUP-B15 (ALL)): 0.355; Differential (SUP-M2 (NHL)): 0.379; GI50 (SUP-M2, 48 h, SUP-M2 (NHL), read-out: GI50): 0.18 nM; GI50 (SUP-M2, 48 h, SUP-M2 (NHL), read-out: Log(GI50) (converted)): 0.18 nM; Differential (SUP-T1 (NHL)): −1.112; Differential (SuDHL-1 (NHL)): −1.366; Differential (SuDHL-4 (NHL)): −0.016; Differential (SuDHL-6 (NHL)): 0.430; Differential (TANOUE (ALL)): −1.366; Differential (U937 (NHL)): 0.333; GI50 (UKE1, 48 h, UKE-1 (AML), read-out: GI50): 0.18 nM; GI50 (UKE1, 48 h, UKE-1 (AML), read-out: Log(GI50) (converted)): 0.175 nM; Differential (UKE-1 (AML)): 0.391; Differential (YT (ALL)): −1.366
